Source: patent EP0091181A2, “Aroyl pyrrolizine compounds, process for their preparation and pharmaceutical compositions containing them” (BEECHAM GROUP PLC, priority 1982, dated 1983)

Experiments:
OLAC Wister male rats = test: Carrageenin test (rat paw oedema); assay type: in vivo; details: for Paw volume ± s.e. / % Inhi-bition: paw volume 3 hours after carrageenin; for Paw volume ± s.e.: control 85.8 ± 9.4
Protocol: 1. Activity in the Carrageenin Test
(§1) Groups of 8 OLAC Wister male rats (140 - 170 g) received the compound of Example 1 orally 1 hour before 0.1 ml of 0.5% λ carrageenin injected into the right hind paw. Paw volumes were measured by mercury displacement 3 hours after carrageenin.

Gastric irritancy test = assay type: in vivo, rats; details: rat, in vivo, po
Protocol: (§2) 2. Gastric Irritancy Test
(§3) Groups of OLAC Wistar female rats (130 - 160 g) were fasted overnight (18 hours) before receiving orally the compound of Example 1. 4 Hours later the stomachs were removed and inspected for the presence of erosion of the gastric mucosa.

OLAC Wistar female rats = test: Gastric irritancy test; assay type: in vivo; details: fasted rats, stomachs inspected 4 hours later
Protocol: as §2, §3

[1] = Therapeutic ratio from the carrageenin test and the gastric irritancy test; assay type: in vivo, rats; details: from the two tests (gastric irritancy ED50 / carrageenin ED25)
Protocol: as §1, §3
From these two tests the therapeutic ratio for the compound of formula (EI) was 41.0.

Structure (SMILES): CC(=O)CC1CCn2c(C(=O)c3ccccc3)ccc21 (centres unmarked) [Example 1, 1-(5-Benzoyl-2-3-dihydro-1H-pyrrolazin-1-yl)-propan-2-one]
- ED25 (OLAC Wister male rats; Rattus norvegicus, oral, carrageenin paw volume, rats): 0.75 mg/kg
- Paw volume ± s.e. (OLAC Wister male rats; oral dose 0.1 mg/kg 1 hour before carrageenin): 92.6 ± 4.6
- % Inhi-bition (OLAC Wister male rats; oral dose 0.1 mg/kg): -8.0%
- Paw volume ± s.e. (OLAC Wister male rats; oral dose 0.5 mg/kg 1 hour before carrageenin): 73.4 ± 7.8
- % Inhi-bition (OLAC Wister male rats; oral dose 0.5 mg/kg): 14.4%
- % Inhi-bition (OLAC Wister male rats; oral dose 2.5 mg/kg): 47.4%
- TD50 at 4 h (Gastric irritancy test): 30.8 mg/kg
- Proportion of rats with gas-tric erosions (OLAC Wistar female rats; oral dose 3.7 mg/kg): 0/8
- Proportion of rats with gas-tric erosions (OLAC Wistar female rats; oral dose 11.2 mg/kg): 1/8
- Proportion of rats with gas-tric erosions (OLAC Wistar female rats; oral dose 33.6 mg/kg): 4/8
- therapeutic ratio [1]: 41.0
